Test results published in patent publication US20250353841A1 (BIOGEN MA INC., priority 2022, published 2025).
pIC50: −log10 of the molar value.

System: mutant Huntington (HTT) protein
Assay: HTT Mutant HTRF iPSC assay (mHTT protein lowering)
Type: cell-based
Settings: human iPSC derived from a HTT patient with a poly-Q49 mutation

SMILES	pIC50
Cc1cn2nc(-c3cc(F)c4nc(NC(=O)C5CCN(C)CC5)nn4c3)cc(C)c2n1 [Compound 327, N-(6-(2,8-dimethylimidazo[1,2-b]pyridazin-6-yl)-8-fluoro-[1,2,4]triazolo[1,5-a]pyridin-2-yl)-1-methylpiperidine-4-carboxamide]	> 7.00
Cc1cn2nc(-c3cc(F)c4nc(C(=O)NC5CN(C(C)C)C5)cn4c3)cc(C)c2n1 [Compound 331, 6-(2,8-dimethylimidazo[1,2-b]pyridazin-6-yl)-8-fluoro-N-(1-isopropylazetidin-3-yl)imidazo[1,2-a]pyridine-2-carboxamide]	> 7.00
Cc1cn2nc(-c3cc(F)c4nc(C(=O)N(C)C5CCN(C)CC5)cn4c3)cc(C)c2n1 [Compound 332, 6-(2,8-dimethylimidazo[1,2-b]pyridazin-6-yl)-8-fluoro-N-methyl-N-(1-methylpiperidin-4-yl)imidazo[1,2-a]pyridine-2-carboxamide]	> 7.00
Cc1cn2nc(-c3cc(F)c4nc(C(=O)NCC5CCCN5C)cn4c3)cc(C)c2n1 (centres unmarked) [Compound 334, 6-(2,8-dimethylimidazo[1,2-b]pyridazin-6-yl)-8-fluoro-N-((1-methylpyrrolidin-2-yl)methyl)imidazo[1,2-a]pyridine-2-carboxamide]	6.00 to 7.00
Cc1cn2nc(-c3cc(F)c4nc(C(=O)NC[C@H]5CCCCN5C)cn4c3)cc(C)c2n1 [Compound 335, 6-(2,8-dimethylimidazo[1,2-b]pyridazin-6-yl)-8-fluoro-N-[[(2R)-1-methyl-2-piperidyl]methyl]imidazo[1,2-a]pyridine-2-carboxamide]	6.00 to 7.00
COCCN1CC(NC(=O)c2cn3cc(-c4cc(C)c5nc(C)cn5n4)cc(F)c3n2)C1 [Compound 338, 6-(2,8-dimethylimidazo[1,2-b]pyridazin-6-yl)-8-fluoro-N-[1-(2-methoxyethyl)azetidin-3-yl]imidazo[1,2-a]pyridine-2-carboxamide]	> 7.00
Cc1cn2nc(-c3cc(F)c4nc(C(=O)NC5CN(CC6CC6)C5)cn4c3)cc(C)c2n1 [Compound 339, N-[1-(cyclopropylmethyl)azetidin-3-yl]-6-(2,8-dimethylimidazo[1,2-b]pyridazin-6-yl)-8-fluoro-imidazo[1,2-a]pyridine-2-carboxamide]	> 7.00
Cc1cn2nc(-c3cc(F)c4nn(C5CCNCC5)cc4c3)cc(C(F)F)c2n1 [Compound 350, 8-(difluoromethyl)-6-[7-fluoro-2-(4-piperidyl)indazol-5-yl]-2-methyl-imidazo[1,2-b]pyridazine]	> 7.00
Cc1cc(-c2cc(F)c3nn(C4CCNCC4)cc3c2)cc2cn(C)nc12 [Compound 351, 7-fluoro-2′,7′-dimethyl-2-(piperidin-4-yl)-2H,2′H-5,5′-biindazole]	6.00 to 7.00
Fc1cc(-c2ccc3nc(C(F)F)cn3n2)cc2cn(C3CCNCC3)nc12 [Compound 352, 2-(difluoromethyl)-6-(7-fluoro-2-(piperidin-4-yl)-2H-indazol-5-yl)imidazo[1,2-b]pyridazine]	5.05 to 6.00
Cc1cc(-c2cc(F)c3nn(C4CCNCC4)cc3c2)nc2cn(C)nc12 [Compound 353, 5-(7-fluoro-2-(piperidin-4-yl)-2H-indazol-5-yl)-2,7-dimethyl-2H-pyrazolo[4,3-b]pyridine]	6.00 to 7.00
Cc1cn2nc(-c3cc(F)c4nn(C5CCN(C6CC6)CC5)cc4c3)cc(C(F)F)c2n1 [Compound 354, 6-(2-(1-cyclopropylpiperidin-4-yl)-7-fluoro-2H-indazol-5-yl)-8-(difluoromethyl)-2-methylimidazo[1,2-b]pyridazine]	6.00 to 7.00
Cc1cn2nc(-c3cc(F)c4nn(C5CCNCC5)cc4c3)cc(C)c2n1 [Compound 355, 6-(7-fluoro-2-(piperidin-4-yl)-2H-indazol-5-yl)-2,8-dimethylimidazo[1,2-b]pyridazine]	> 7.00
Cc1cc(-c2cc(F)c3nn(C4CCN(C)CC4)cc3c2)cc2cn(C)nc12 [Compound 356, 7-fluoro-2′,7′-dimethyl-2-(1-methylpiperidin-4-yl)-2H,2′H-5,5′-biindazole]	6.00 to 7.00
CCc1cc(-c2cc(F)c3nn(C4CCN(C)CC4)cc3c2)nn2cc(C)nc12 [Compound 357, 8-ethyl-6-(7-fluoro-2-(1-methylpiperidin-4-yl)-2H-indazol-5-yl)-2-methylimidazo[1,2-b]pyridazine]	6.00 to 7.00
COc1cc(-c2cc(F)c3nn(C4CCN(C)CC4)cc3c2)nn2nc(C)nc12 [Compound 358, 6-(7-fluoro-2-(1-methylpiperidin-4-yl)-2H-indazol-5-yl)-8-methoxy-2-methyl-[1,2,4]triazolo[1,5-b]pyridazine]	> 7.00
Cc1nc2c(C)cc(-c3cc(F)c4nn(C5CCN(C)CC5)cc4c3)nn2n1 [Compound 359, 6-(7-fluoro-2-(1-methylpiperidin-4-yl)-2H-indazol-5-yl)-2,8-dimethyl-[1,2,4]triazolo[1,5-b]pyridazine]	> 7.00
Cc1cc2nc(-c3cc(F)c4nn(C5CCN(C)CC5)cc4c3)cc(C)n2n1 [Compound 360, 5-(7-fluoro-2-(1-methylpiperidin-4-yl)-2H-indazol-5-yl)-2,7-dimethylpyrazolo[1,5-a]pyrimidine]	6.00 to 7.00
Cc1cn2nc(-c3cc(F)c4nn([C@H]5[C@@H]6CNC[C@@H]65)cc4c3)cc(C)c2n1 [Compound 361, 6-[2-[(1R,5S)-3-azabicyclo[3.1.0]hexan-6-yl]-7-fluoro-indazol-5-yl]-2,8-dimethyl-imidazo[1,2-b]pyridazine]	> 7.00
Cc1cn2nc(-c3cc(F)c4nn(C5CCN(C)CC5)cc4c3)cc(C)c2n1 [Compound 362, 6-(7-fluoro-2-(1-methylpiperidin-4-yl)-2H-indazol-5-yl)-2,8-dimethylimidazo[1,2-b]pyridazine]	> 7.00
Cc1cn2nc(-c3cc(F)c4nn(C5CCN(C)CC5)cc4c3)cc(C(F)F)c2n1 [Compound 363, 8-(difluoromethyl)-6-(7-fluoro-2-(1-methylpiperidin-4-yl)-2H-indazol-5-yl)-2-methylimidazo[1,2-b]pyridazine]	> 7.00
Cc1cn2nc(-c3cc(F)c4nn(C5CCN(C)CC5)cc4c3)cc(C)c2n1 [Compound 364, 6-(7-fluoro-2-(1-methylpiperidin-4-yl)-2H-indazol-5-yl)-2,8-dimethylimidazo[1,2-b]pyridazine]	6.00 to 7.00
Cc1cn2nc(-c3cc(F)c4nn(C5CCNCC5)cc4c3)ccc2n1 [Compound 365, 6-(7-fluoro-2-(piperidin-4-yl)-2H-indazol-5-yl)-2-methylimidazo[1,2-b]pyridazine]	> 7.00
Cc1cn2nc(-c3cc(F)c4nn(C5CCN(C)C5)cc4c3)cc(C)c2n1 (centres unmarked) [Compound 366, 6-(7-fluoro-2-(1-methylpyrrolidin-3-yl)-2H-indazol-5-yl)-2,8-dimethylimidazo[1,2-b]pyridazine]	5.05 to 6.00
Cc1cn2nc(-c3cc(F)c4nn([C@H]5[C@@H]6CN(CC7CC7)C[C@@H]65)cc4c3)cc(C)c2n1 [Compound 367, 6-[2-[(1R,5S)-3-(cyclopropylmethyl)-3-azabicyclo[3.1.0]hexan-6-yl]-7-fluoro-indazol-5-yl]-2,8-dimethyl-imidazo[1,2-b]pyridazine]	6.00 to 7.00
CNC1CCC(n2cc3cc(-c4cc(C)c5nc(C)cn5n4)cc(F)c3n2)CC1 (centres unmarked) [Compound 368, 4-(5-(2,8-dimethylimidazo[1,2-b]pyridazin-6-yl)-7-fluoro-2H-indazol-2-yl)-N-methylcyclohexan-1-amine]	6.00 to 7.00
